Measured values as given in patent US20260137697A1, “THIAZOLO[5,4-D]PYRIMIDINE COMPOUNDS, COMPOSITIONS COMPRISING THEM AND USES THEREOF” (University de Montreal, priority 2022, published 2026).

Tests used:
[1] = molecular target: T1, CRAF (Homo sapiens, UniProt P04049); test: CRAF kinase activity assay (ADP-Glo); assay type: biochemical; details: Table 3; 10 μM ATP, kinase-dead MEK1 substrate
T1 construct: fused on or other part: GST tag (N-terminal according to the vendor's product)
Procedure: (§1) Compound preparation: solid samples of each substance in 1dram vials were suspended in DMSO (Fisher Scientific) at a stock concentration of 20 mM. Stocks were kept at −20° C. and protected from light. If solubility of the compound at 20 mM appeared to be an issue, the initial concentration of the DMSO stock was changed to 10 mM or 5 mM.
(§2) In vitro enzymatic reactions were used for evaluating compounds intrinsic activity against BRAF, CRAF and ARAF. For BRAF and CRAF, 0.375 nM of purified GST-tagged kinases (cat. No. B4062-10UG and cat. No. R1656-10UG respectively from Millipore Sigma) were incubated with 75 nM of kinase-dead MEK1 substrate (cat. No. 40075; BPS Bioscience) in the presence of 10 μM of Ultrapure ATP (cat. No. V9102; Promega; part V915A) with and without the test compound in a buffer containing 50 mM HEPES pH 7.5, 10 mM MgCl2, 1 mM EDTA, 0.01% Brij-35 and 2 mM DTT. Separate reactions were performed with the MEK1 substrate and ATP as a blank control. ARAF kinase reactions were rigorously the same with the exception that kinase concentration was raised to 3.75 nM (cat. No. 1768-0000-1; Reaction Biology).
(§3) For compound treatment, 5 μL/well of test substance solution are placed in a 384-well proxyplate (Perkin Elmer) and mixed with 2× concentrated kinase reactions. The dilution series is selected so that nine concentrations cover a range from 100 nM to 0.01 nM. […] The final concentration of DMSO in the assay is set at 0.05%.
(§4) BRAF and CRAF kinase reactions were carried out for a total of 2 hours at 30° C. and then stopped by 1/2 dilution in ADP-Glo Reagent (cat. No. V9102; Promega; part V912C). Reactions were then incubated for 1 h at room temperature before addition of one volume of Kinase Detection Reagent (cat. No. V9102; Promega; part V917A). Plates were then equilibrated at room temperature for 30 minutes before detection of luminescence on a Synergy Neo2 plate reader (Biotek). The effect of each compound dilution on BRAF and CRAF kinase activity was expressed as % inhibition and calculated as follows. First, the internal 100% inhibition control (average of luminescence in kinase reactions comprising kinase dead MEK1 substrate alone) was subtracted from each data point. The average of DMSO (vehicle) controls (set as 0% inhibition) was established and used to calculate % inhibition:
(§5) IC50 values were obtained by plotting the kinase inhibition values and fitting the dose-activity curves using a log(agonist) versus response—variable slope (four parameters) function using either GraphPadPrism (V7.0) or Dotmatics Screening Ultra platform. Standards included in the ARAF kinase assay were Belvarafenib (MedChem Express cat. No. HY-109080; CAS No. 1446113-23-0), LXH254 (MedChem Express cat. No. HY-112089; CAS No. 1800398-38-2) and BGB283 (cat. No. HY-18957; CAS No. 1446090-79-4).

[2] = test system: pERK, HCT116 cells; test: Phospho-ERK inhibition, AlphaLISA p-ERK 1/2, HCT-116; assay type: cell-based, human; details: Table 3; for IC50: HCT116 cells (KRAS G13D), 1 h treatment; for HCT116 pERK (Ymin %): lowest % inhibition value of the pERK IC50 curve, above −20% = no paradoxical induction
Procedure: All cancer cell lines (A375, A101D, A2058, RKO, HT29 SK-MEL 30, IPC298, HepG2, HCT-116, Lovo, SW620, SW480, NCI-H358, NCI-H2122, Calu-6, NCIH2087, NCIH1755, NCIH1666 and Mewo) were obtained from ATCC and cultured in RPM1-1640 medium (Gibco) supplemented with 5% heat inactivated fetal bovine serum (FBS, Wisent) at 37° C. under 5% CO2. Cells were maintained in T175 flasks (Greiner). They were passaged by removing the culture medium, washing once in 10 mL of room temperature Phosphate Buffered Saline (PBS; Wisent) and incubating at 37° C. with 2 mL of 0.05% Trypsin (Thermo-Fisher). Trypsin was then inactivated by adding complete growth medium and the cells were then replated in a T175 culture dish at the appropriate dilution. All cell lines were routinely tested for mycoplasma contamination. Tissue type and mutational status of each cell line can be found in Table B.
(c) Measurement of Phospho-ERK Inhibition in Cultivated Human Cancer Cell Lines by the AlphaLISA® SureFire® Ultra™ p-ERK 1/2 (Thr2O2/Tyr204)
AlphaLISA® SureFire® Ultra™ p-ERK 1/2 (Thr202/Tyr204) analysis was conducted on cells plated in 100 μL of complete RPMI-1640 growth medium in 96-well flat-bottomed transparent dishes (Costar) at a density indicated in Table C. Cells were maintained overnight at 37° C. under 5% CO2 before treatment with compounds' dilution series for one hour. The cell density in cells/cm^2 corresponds to cell number divided by the area of one well of a 96-well plate (0.143 cm^2).
In a dilution series 100 μL/well of test substance dilution prepared in complete RPMI-1640 growth media was added to the cells. The dilution series is selected so that ten concentrations cover a range from 10 μM to 0.33 nM. If necessary, the initial concentration of 10 μM is increased to 100 μM or lowered to 1 μM (as in the case of A375 and H1666 cells, which are generally more sensitive to the compounds) and further dilution is carried out accordingly. The final concentration of DMSO in the assay is set at 0.5%.
After treatment, media was removed, and cells were lysed in 50 μL of 1× AlphaScreen Ultra Lysis Buffer (Perkin Elmer). The AlphaLISA® SureFire® Ultra™ p-ERK 1/2 (Thr202/Tyr204) (PerkinElmer) reactions were performed with 5 μL of cell lysate according to the manufacturer's specifications in 384-well proxyplates (Perkin Elmer) followed by overnight incubation of the reactions at room temperature in a humidified chamber. After completion of the reactions, the signals were recorded on an EnVision plate reader (Perkin Elmer) using built in AlphaLISA® settings.
The effect of each compound dilution on the pERK signal was expressed in % inhibition and calculated as follows. An internal 100% inhibition control (1 μM trametinib, cat. No. HY-10999; MedChem Express; CAS No. 871700-17-3) was included in each plate and used as a measure of pERK background. First, the value obtained for trametinib was subtracted from each data point. The average of DMSO (vehicle) controls (set as 0% inhibition) was established and used to calculate % inhibition:
The ability of each compound to inhibit pERK signal was expressed as an IC50 value obtained by plotting the inhibition values for each data point of a dilution series and fitting the obtained curves using a log(agonist) versus response—variable slope (four parameters) function using GraphPadPrism (V7.0) or Dotmatics Screening Ultra platform.
When present, paradoxical pERK induction is inferred from the negative % inhibition values observed in the pERK IC50 curves of a compound.

[3] = molecular target: T2, BRAF (Homo sapiens, UniProt P15056); test: BRAF kinase activity assay (ADP-Glo); assay type: biochemical; details: Table 3; 10 μM ATP, kinase-dead MEK1 substrate
T2 construct: GST; purchased Millipore Sigma B4062-10UG
Procedure: as §1, §2, §3, §4, §5

T1 sequence (P04049 whole entry Y340E/Y341E, form open, the tested form may be a part): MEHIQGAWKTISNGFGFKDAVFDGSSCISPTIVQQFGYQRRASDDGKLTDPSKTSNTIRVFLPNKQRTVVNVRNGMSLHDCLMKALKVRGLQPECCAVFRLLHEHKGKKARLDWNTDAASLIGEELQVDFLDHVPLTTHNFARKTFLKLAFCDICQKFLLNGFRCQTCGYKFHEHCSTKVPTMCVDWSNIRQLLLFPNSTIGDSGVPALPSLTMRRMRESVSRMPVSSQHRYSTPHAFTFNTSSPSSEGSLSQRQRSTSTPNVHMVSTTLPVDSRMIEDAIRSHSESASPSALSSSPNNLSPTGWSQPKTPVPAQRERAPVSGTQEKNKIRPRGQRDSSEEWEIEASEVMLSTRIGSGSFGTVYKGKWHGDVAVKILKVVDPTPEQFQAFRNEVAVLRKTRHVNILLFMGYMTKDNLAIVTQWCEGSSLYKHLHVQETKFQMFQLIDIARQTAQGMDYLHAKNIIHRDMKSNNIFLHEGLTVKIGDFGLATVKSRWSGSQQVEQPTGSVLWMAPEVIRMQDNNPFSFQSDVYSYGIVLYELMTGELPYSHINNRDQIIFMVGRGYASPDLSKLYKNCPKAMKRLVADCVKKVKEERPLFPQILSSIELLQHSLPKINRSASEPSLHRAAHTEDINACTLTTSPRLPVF
T2 sequence (P15056 whole entry): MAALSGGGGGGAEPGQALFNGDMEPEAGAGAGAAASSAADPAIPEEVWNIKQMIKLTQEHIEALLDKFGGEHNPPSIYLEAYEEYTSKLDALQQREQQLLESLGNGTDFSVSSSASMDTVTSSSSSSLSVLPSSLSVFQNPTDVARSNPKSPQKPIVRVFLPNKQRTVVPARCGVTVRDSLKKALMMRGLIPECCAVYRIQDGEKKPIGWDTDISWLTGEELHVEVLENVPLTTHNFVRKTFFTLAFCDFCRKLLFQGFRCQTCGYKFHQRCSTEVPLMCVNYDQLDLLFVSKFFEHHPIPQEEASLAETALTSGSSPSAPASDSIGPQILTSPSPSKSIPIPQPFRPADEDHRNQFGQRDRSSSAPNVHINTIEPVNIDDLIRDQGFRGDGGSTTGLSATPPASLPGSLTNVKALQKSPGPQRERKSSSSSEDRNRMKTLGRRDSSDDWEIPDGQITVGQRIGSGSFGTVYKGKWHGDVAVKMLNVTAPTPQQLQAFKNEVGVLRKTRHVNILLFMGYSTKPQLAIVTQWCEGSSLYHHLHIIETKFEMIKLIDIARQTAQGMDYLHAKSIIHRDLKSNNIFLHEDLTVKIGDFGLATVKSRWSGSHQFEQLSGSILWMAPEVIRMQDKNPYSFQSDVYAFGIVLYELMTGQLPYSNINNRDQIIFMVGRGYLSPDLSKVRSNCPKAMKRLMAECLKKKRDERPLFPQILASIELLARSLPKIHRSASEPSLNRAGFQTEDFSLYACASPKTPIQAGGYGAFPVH

Structure (SMILES)	IC50 [1] [nM]	IC50 [2] [nM]	IC50 [3] [nM]	IC50 ([2]; Homo sapiens, HCT-116) [nM]	HCT116 pERK (Ymin %) [2] [%]
CN(Cc1ccncc1)C(=O)c1cn(-c2nc3c(Nc4c(F)ccc(NS(=O)(=O)c5cccc(Cl)c5Cl)c4F)ncnc3s2)c2ccccc12 [Example 45]	< 10	< 500	< 1		−4
CN(Cc1cccnc1)C(=O)c1cn(-c2nc3c(Nc4c(F)ccc(NS(=O)(=O)c5cccc(Cl)c5Cl)c4F)ncnc3s2)c2ccccc12 [Example 46]	< 10	< 500	1 to 10		1
O=S(=O)(Nc1ccc(F)c(Nc2ncnc3sc(-n4cnc5cc(Cl)c(Cl)cc54)nc23)c1F)c1cccc(Cl)c1Cl [Example 47]	10 to 50		1 to 10	1000 to 10000	
COCCN(C)S(=O)(=O)c1cn(-c2nc3c(Nc4c(F)ccc(NS(=O)(=O)c5cccc(Cl)c5Cl)c4F)ncnc3s2)c2ccccc12 [Example 48]	10 to 50	500 to 1000	1 to 10		0
O=S(=O)(Nc1ccc(F)c(Nc2ncnc3sc(-n4cnc5c(F)c(F)ccc54)nc23)c1F)c1cccc(Cl)c1Cl [Example 49]	< 10		1 to 10	500 to 1000	
CN(CCc1ccccn1)C(=O)c1cn(-c2nc3c(Nc4c(F)ccc(NS(=O)(=O)c5cccc(Cl)c5Cl)c4F)ncnc3s2)c2ccccc12 [Example 50]	< 10	< 500	< 1		1
O=C(c1cn(-c2nc3c(Nc4c(F)ccc(NS(=O)(=O)c5cccc(Cl)c5Cl)c4F)ncnc3s2)c2ccccc12)N1C2CCC1COC2 [Example 51]	< 10	< 500	< 1		−1
O=C(c1cn(-c2nc3c(Nc4c(F)ccc(NS(=O)(=O)c5cccc(Cl)c5Cl)c4F)ncnc3s2)c2ccccc12)N1CCC(CO)C1 (stereo not drawn) [Example 52]	< 10	500 to 1000	< 1		−9
O=C(c1cn(-c2nc3c(Nc4c(F)ccc(NS(=O)(=O)c5cccc(Cl)c5Cl)c4F)ncnc3s2)c2ccccc12)N1CCC(O)C1 (stereo not drawn) [Example 53]	< 10	500 to 1000	< 1		−9
N#CC1CN(C(=O)c2cn(-c3nc4c(Nc5c(F)ccc(NS(=O)(=O)c6cccc(Cl)c6Cl)c5F)ncnc4s3)c3ccccc23)C1 [Example 54]	< 10	< 500	1 to 10		−6
O=C(c1cn(-c2nc3c(Nc4c(F)ccc(NS(=O)(=O)c5cccc(Cl)c5Cl)c4F)ncnc3s2)c2ccccc12)N1CCCC(O)C1 (stereo not drawn) [Example 55]	< 10	500 to 1000	< 1		−3

Continued, in another order:

IC50 [1] [nM]	IC50 [2] [nM]	IC50 [3] [nM]	IC50 ([2]; Homo sapiens, HCT-116) [nM]	Structure (SMILES)	HCT116 pERK (Ymin %) [2] [%]
< 10	< 500	< 1		CN1CC2CCC(C1)N2C(=O)c1cn(-c2nc3c(Nc4c(F)ccc(NS(=O)(=O)c5cccc(Cl)c5Cl)c4F)ncnc3s2)c2ccccc12 [Example 56]	0
10 to 50	< 500	1 to 10		O=C(c1cn(-c2nc3c(Nc4c(F)ccc(NS(=O)(=O)c5cccc(Cl)c5Cl)c4F)ncnc3s2)c2ccccc12)N1CC(C(F)F)C1 [Example 57]	4
< 10	< 500	1 to 10		O=C(c1cn(-c2nc3c(Nc4c(F)ccc(NS(=O)(=O)c5cccc(Cl)c5Cl)c4F)ncnc3s2)c2ccccc12)N1CC2(CCOCC2)C1 [Example 58]	−12
< 10	500 to 1000	< 1		O=C(c1cn(-c2nc3c(Nc4c(F)ccc(NS(=O)(=O)c5cccc(Cl)c5Cl)c4F)ncnc3s2)c2ccccc12)N1CC(O)C1 [Example 59]	4
< 10	< 500	< 1		N#CCC1CN(C(=O)c2cn(-c3nc4c(Nc5c(F)ccc(NS(=O)(=O)c6cccc(Cl)c6Cl)c5F)ncnc4s3)c3ccccc23)C1 [Example 60]	−2
< 10	< 500	1 to 10		NS(=O)(=O)c1cn(-c2nc3c(Nc4c(F)ccc(NS(=O)(=O)c5cccc(Cl)c5Cl)c4F)ncnc3s2)c2ccccc12 [Example 61]	−13
< 10	< 500	1 to 10		COCCNS(=O)(=O)c1cn(-c2nc3c(Nc4c(F)ccc(NS(=O)(=O)c5cccc(Cl)c5Cl)c4F)ncnc3s2)c2ccccc12 [Example 62]	2
10 to 50	< 500	1 to 10		CCS(=O)(=O)c1cn(-c2nc3c(Nc4c(F)ccc(NS(=O)(=O)c5cccc(Cl)c5Cl)c4F)ncnc3s2)c2ccccc12 [Example 63]	−5
> 50	< 500	1 to 10		O=S(=O)(Nc1ccc(F)c(Nc2ncnc3sc(-n4cc(S(=O)(=O)C5CCCC5)c5ccccc54)nc23)c1F)c1cccc(Cl)c1Cl [Example 64]	−4
